From ChEMBL document CHEMBL3217509, “Discovery of an HIV integrase inhibitor with an excellent resistance profile” (Medchemcomm, 2013)
Blank lines part the entries; values can stand above or below the compound they belong to. Calls of active or inactive are those of the source. The calls are words filed in the database; no cut-off is given here.

Experiments:
[1] = Clearance in rat liver microsomes assessed per mg of protein; type: ADME; details: read-out: CLH
[2] = test system: Canis familiaris; test: Clearance in dog at 0.1 mg/kg, iv; type: ADME, organism-based, Canis lupus familiaris; parameters: dose 0.1 mg/kg, route intravenous; details: in vivo
[3] = test system: Human immunodeficiency virus 1; test: Resistance ratio of IC50 for MLV pseudotyped HIV1 NL4-3 expressing integrase N155H mutant to IC50 for MLV pseudotyped HIV1 NL4-3 expressing wild type integrase; type: functional
[4] = test system: Human immunodeficiency virus 1; test: Resistance ratio of IC50 for MLV pseudotyped HIV1 NL4-3 expressing integrase Q148H mutant to IC50 for MLV pseudotyped HIV1 NL4-3 expressing wild type integrase; type: functional
[5] = Plasma protein binding in human; type: ADME, cell-free; details: read-out: PPB (converted)
[6] = Volume of distribution at steady state in healthy human at 100 ug, iv; type: ADME, organism-based; details: in vivo, read-out: Vdss
[7] = test system: Human immunodeficiency virus 1; test: Antiviral activity against HIV1 CMU06 infected in human PBMC after 5 days by human JC53BL cell-based beta-galactosidase reporter gene assay; type: functional, organism-based; details: Human immunodeficiency virus 1, CMU06, JC53BL, 120 h
[8] = Inhibition of DNA polymerase gamma (unknown origin); parameters: species or system Homo sapiens
[9] = test system: Human immunodeficiency virus 1; test: Inhibition of MLV pseudotyped HIV1 NL4-3 expressing integrase G140S/Q148K mutant; type: functional, organism-based
[10] = test system: Human immunodeficiency virus 1; test: Antiviral activity against HIV1 SF162 infected in human PBMC after 5 days by human JC53BL cell-based beta-galactosidase reporter gene assay; type: functional, organism-based; details: Human immunodeficiency virus 1, SF162, JC53BL, 120 h
[11] = Intrinsic clearance in human liver microsomes assessed per mg of protein by LC-MS/MS analysis; type: ADME; details: read-out: CLH
[12] = test system: Human immunodeficiency virus 1; test: Resistance ratio of IC50 for MLV pseudotyped HIV1 NL4-3 expressing integrase T66I/S153Y mutant to IC50 for MLV pseudotyped HIV1 NL4-3 expressing wild type integrase; type: functional
[13] = test system: Human immunodeficiency virus 1; test: Resistance ratio of IC50 for MLV pseudotyped HIV1 NL4-3 expressing integrase G140S mutant to IC50 for MLV pseudotyped HIV1 NL4-3 expressing wild type integrase; type: functional
[14] = test system: Human immunodeficiency virus 1; test: Resistance ratio of IC50 for MLV pseudotyped HIV1 NL4-3 expressing integrase S153Y mutant to IC50 for MLV pseudotyped HIV1 NL4-3 expressing wild type integrase; type: functional
[15] = test system: Human immunodeficiency virus 1; test: Resistance ratio of IC50 for MLV pseudotyped HIV1 NL4-3 expressing integrase E92Q mutant to IC50 for MLV pseudotyped HIV1 NL4-3 expressing wild type integrase; type: functional
[16] = test system: Human immunodeficiency virus 1; test: Antiviral activity against HIV1 NL4-3 infected in human PBMC after 5 days by human JC53BL cell-based beta-galactosidase reporter gene assay; type: functional, organism-based; details: Human immunodeficiency virus 1, NL4-3, JC53BL, 120 h
[17] = test system: Human immunodeficiency virus 1; test: Antiviral activity against HIV1 NL4-3 infected in human MT2 cells after 3 days by human JC53BL cell-based beta-galactosidase reporter gene assay; type: functional, organism-based; details: Human immunodeficiency virus 1, NL4-3, JC53BL, 72 h
[18] = Drug metabolism in iv dosed dog urine; type: ADME, organism-based, Canis lupus familiaris; details: in vivo
[19] = Partition coefficient, pKa of the compound; type: physicochemical; details: octanol/water
[20] = test system: Human immunodeficiency virus 1; test: Resistance ratio of IC50 for MLV pseudotyped HIV1 NL4-3 expressing integrase T97A mutant to IC50 for MLV pseudotyped HIV1 NL4-3 expressing wild type integrase; type: functional
[21] = Clearance in dog hepatocytes assessed per million of cells; type: ADME, cell-based, Canis lupus familiaris, Hepatocyte; details: read-out: CLH
[22] = Oral bioavailability in rat at 2 mg/kg; type: ADME, organism-based; details: in vivo
[23] = test system: Human immunodeficiency virus 1; test: Resistance ratio of IC50 for MLV pseudotyped HIV1 NL4-3 expressing integrase G140S/Q148h mutant to IC50 for MLV pseudotyped HIV1 NL4-3 expressing wild type integrase; type: functional
[24] = Intrinsic clearance in human hepatocytes assessed assessed per million of cells by LC-MS/MS analysis; type: ADME, cell-based, Hepatocyte; details: read-out: CLH
[25] = test system: Human immunodeficiency virus 1; test: Resistance ratio of IC50 for MLV pseudotyped HIV1 NL4-3 expressing integrase V72I/F121Y/T125K mutant to IC50 for MLV pseudotyped HIV1 NL4-3 expressing wild type integrase; type: functional
[26] = Inhibition of DNA polymerase alpha (unknown origin); parameters: species or system Homo sapiens
[27] = Plasma protein binding in dog; type: ADME, cell-free, Canis lupus familiaris; details: read-out: PPB (converted)
[28] = Half life in rat at 2 mg/kg, po and 2 mg/kg, iv; type: ADME, organism-based; details: in vivo
[29] = Volume of distribution at steady state in dog at 0.1 mg/kg, iv; type: ADME, organism-based, Canis lupus familiaris; parameters: dose 0.1 mg/kg, route intravenous; details: in vivo, read-out: Vdss
[30] = test system: Human immunodeficiency virus 1; test: Antiviral activity against HIV1 infected in human MT2 cells assessed as emergence of breakthrough at 10 times IC50; type: functional, organism-based
[31] = test system: Human immunodeficiency virus 1; test: Resistance ratio of IC50 for MLV pseudotyped HIV1 NL4-3 expressing integrase T125K/F121Y mutant to IC50 for MLV pseudotyped HIV1 NL4-3 expressing wild type integrase; type: functional
[32] = Volume of distribution at steady state in rat at 2 mg/kg, po and 2 mg/kg, iv; type: ADME, organism-based; details: in vivo, read-out: Vdss
[33] = Activity at UGT1A2 (unknown origin) assessed as metabolite metabolism; type: ADME; details: human
[34] = Clearance in dog liver microsomes assessed per mg of protein in presence of UDPGA; type: ADME, Canis lupus familiaris; details: read-out: CLH
[35] = test system: Human immunodeficiency virus 1; test: Resistance ratio of IC50 for MLV pseudotyped HIV1 NL4-3 expressing integrase V72I/F121Y/T125K/V151L mutant to IC50 for MLV pseudotyped HIV1 NL4-3 expressing wild type integrase; type: functional
[36] = test system: Human immunodeficiency virus 1; test: Antiviral activity against HIV1 BaL infected in human PBMC after 5 days by human JC53BL cell-based beta-galactosidase reporter gene assay; type: functional, organism-based; details: Human immunodeficiency virus 1, BaL, 120 h
[37] = test system: Human immunodeficiency virus 1; test: Resistance ratio of IC50 for MLV pseudotyped HIV1 NL4-3 expressing integrase G140A mutant to IC50 for MLV pseudotyped HIV1 NL4-3 expressing wild type integrase; type: functional
[38] = test system: Rattus norvegicus; test: Toxicity in rat assessed as histopathological abnormalities at 25 times antiviral IC50 administered for 7 days; type: organism-based; details: in vivo, 168 h
[39] = test system: Human immunodeficiency virus 1; test: Antiviral activity against HIV1 HT92596 infected in human PBMC after 5 days by human JC53BL cell-based beta-galactosidase reporter gene assay; type: functional, organism-based; details: Human immunodeficiency virus 1, HT92596, JC53BL, 120 h
[40] = Intrinsic clearance in human liver microsomes assessed per mg of protein by LC-MS/MS analysis in presence of UDPGA; type: ADME; details: read-out: CLH
[41] = Cytotoxicity against human MT2 cells after 3 days by CellTitre-Glo assay; type: cell-based
[42] = test system: Human immunodeficiency virus 1; test: Resistance ratio of IC50 for MLV pseudotyped HIV1 NL4-3 expressing integrase Q148K mutant to IC50 for MLV pseudotyped HIV1 NL4-3 expressing wild type integrase; type: functional
[43] = test system: Human immunodeficiency virus 1; test: Resistance ratio of IC50 for MLV pseudotyped HIV1 NL4-3 expressing integrase F121Y mutant to IC50 for MLV pseudotyped HIV1 NL4-3 expressing wild type integrase; type: functional
[44] = Selectivity ratio of CC50 for HIV1 NL4-3 infected in human MT2 cells to IC50 for human MT2 cells; type: ADME, cell-based; details: read-out: Ratio CC50/IC50
[45] = test system: Rattus norvegicus; test: Clearance in rat at 2 mg/kg, po and 2 mg/kg, iv; type: ADME, organism-based; details: in vivo
[46] = Half life in healthy human at 100 ug, iv; type: ADME, organism-based; details: in vivo
[47] = Clearance in healthy human at 100 ug, iv; type: ADME, organism-based; details: in vivo
[48] = Clearance in rat hepatocytes assessed per million of cells; type: ADME, cell-based, Hepatocyte; details: read-out: CLH
[49] = test system: Human immunodeficiency virus 1; test: Antiviral activity against HIV1 UG92037 infected in human PBMC after 5 days by human JC53BL cell-based beta-galactosidase reporter gene assay; type: functional, organism-based; details: Human immunodeficiency virus 1, UG92037, JC53BL, 120 h
[50] = Half life in dog at 0.1 mg/kg, iv; type: ADME, organism-based, Canis lupus familiaris; parameters: dose 0.1 mg/kg, route intravenous; details: in vivo
[51] = test system: Human immunodeficiency virus 1; test: Antiviral activity against HIV1 BR92004 infected in human PBMC after 5 days by human JC53BL cell-based beta-galactosidase reporter gene assay; type: functional, organism-based; details: Human immunodeficiency virus 1, BR92004, JC53BL, 120 h
[52] = Inhibition of DNA polymerase beta (unknown origin); parameters: species or system Homo sapiens
[53] = Clearance in rat liver microsomes assessed per mg of protein in presence of UDPGA; type: ADME; details: read-out: CLH
[54] = test system: Human immunodeficiency virus 1; test: Resistance ratio of IC50 for MLV pseudotyped HIV1 NL4-3 expressing integrase E92Q/N155H mutant to IC50 for MLV pseudotyped HIV1 NL4-3 expressing wild type integrase; type: functional
[55] = Plasma protein binding in rat; type: ADME, cell-free; details: read-out: PPB
[56] = test system: Human immunodeficiency virus 1; test: Antiviral activity against HIV1 HT92599 infected in human PBMC after 5 days by human JC53BL cell-based beta-galactosidase reporter gene assay; type: functional, organism-based; details: Human immunodeficiency virus 1, HT92599, JC53BL, 120 h
[57] = Lipophilicity, log D of the compound; type: physicochemical; details: octanol/water
[58] = test system: Human immunodeficiency virus 1; test: Antiviral activity against HIV1 ZA97003 infected in human PBMC after 5 days by human JC53BL cell-based beta-galactosidase reporter gene assay; type: functional, organism-based; details: Human immunodeficiency virus 1, ZA97003, JC53BL, 120 h
[59] = target: Human immunodeficiency virus type 1 integrase (Human immunodeficiency virus 1, UniProt Q7ZJM1); test: Inhibition of HIV1 HXB2 full length amino terminal 6-HIs tagged integrase expressed in Escherichia coli using [3H]thymidine-labeled DNA/biotinylated ds-DNA as substrate assessed as inhibition of strand transfer after 50 mins by scintillation proximity assay
Chain of Human immunodeficiency virus type 1 integrase (Q7ZJM1 whole entry): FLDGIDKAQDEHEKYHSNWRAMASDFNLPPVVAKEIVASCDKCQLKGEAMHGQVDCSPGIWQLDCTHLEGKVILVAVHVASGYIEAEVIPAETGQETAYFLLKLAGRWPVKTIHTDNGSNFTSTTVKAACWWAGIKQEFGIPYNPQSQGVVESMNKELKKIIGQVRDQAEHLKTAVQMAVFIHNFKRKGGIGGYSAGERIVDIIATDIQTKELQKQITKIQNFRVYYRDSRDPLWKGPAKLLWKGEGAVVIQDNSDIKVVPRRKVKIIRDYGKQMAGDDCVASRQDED

[60] = test system: Human immunodeficiency virus 1; test: Antiviral activity against HIV1 UG94118 infected in human PBMC after 5 days by human JC53BL cell-based beta-galactosidase reporter gene assay; type: functional, organism-based; details: Human immunodeficiency virus 1, UG94118, JC53BL, 120 h
[61] = test system: Human immunodeficiency virus 1; test: Resistance ratio of IC50 for MLV pseudotyped HIV1 NL4-3 expressing integrase E138A mutant to IC50 for MLV pseudotyped HIV1 NL4-3 expressing wild type integrase; type: functional

Compound: COc1cc(F)ccc1Cn1ccc2c3c(ncc21)C(=O)N(O)CC3 [PF-04776548]
microsomal CLint [1]: 26 µL/min/mg | clearance [2]: 24 mL/min/kg | Ratio IC50 [3]: <10 | Ratio IC50 [4]: <10 | fraction unbound [5]: 0.08 | Vd [6]: 5.7 L/kg | EC50 [7]: 0.61 nM | IC50 [8]: 7100 nM | inhibition [9]: inactive | EC50 [10]: 1.68 nM | microsomal CLint [11]: 8.3 µL/min/mg | Ratio IC50 [12]: <10 | Ratio IC50 [13]: <10 | Ratio IC50 [14]: <10 | Ratio IC50 [15]: <10 | EC50 [16]: 0.48 nM | IC50 [17]: 1.5 nM | Drug metabolism [18]: Active | pKa [19]: 7.6 | Ratio IC50 [20]: <10 | hepatocyte CLint [21]: 17 µL/min/1e6 cells | bioavailability [22]: 1% | Ratio IC50 [23]: <10 | hepatocyte CLint [24]: 32.7 µL/min/1e6 cells | Ratio IC50 [25]: <10 | IC50 [26]: > 100000 nM | fraction unbound [27]: 0.16 | half-life [28]: 0.3 h | Vd [29]: 2 L/kg | Activity [30]: Active | Ratio IC50 [31]: <10 | Vd [32]: 3 L/kg | Activity [33]: Not Active | microsomal CLint [34]: 21 µL/min/mg | Ratio IC50 [35]: <10 | EC50 [36]: 2.22 nM | Ratio IC50 [37]: <10 | Activity [38]: Non-toxic | EC50 [39]: 0.84 nM | microsomal CLint [40]: 28 µL/min/mg | CC50 at 72 h [41]: 7360 nM | Ratio IC50 [42]: <10 | Ratio IC50 [43]: <10 | selectivity ratio [44]: 4800 | clearance [45]: 98 mL/min/kg | half-life [46]: 2.8 h | clearance [47]: 18 mL/min/kg | hepatocyte CLint [48]: 33 µL/min/1e6 cells | EC50 [49]: 0.84 nM | half-life [50]: 1.2 h | EC50 [51]: 0.44 nM | IC50 [52]: > 100000 nM | microsomal CLint [53]: 43 µL/min/mg | Ratio IC50 [54]: <10 | fraction unbound [55]: 0.09 | EC50 [56]: 0.37 nM | logD [57]: 2.1 | EC50 [58]: 0.15 nM | IC50 [59]: 40.5 nM | EC50 [60]: 6.68 nM | Ratio IC50 [61]: <10

IC50 [26]: 7170 nM | IC50 [52]: 1960 nM
Compound: Cc1cn([C@H]2CC[C@@H](COP(=O)(O)OP(=O)(O)OP(=O)(O)O)O2)c(=O)[nH]c1=O
